Test results: patent US20120226031A1, “PALMARUMYCIN BASED INHIBITORS OF THIOREDOXIN AND METHODS OF USING SAME” (ARIZONA BOARD OF REGENTS, ACTING ON BEHALF OF THE …, priority 2005, published 2012)
Read-outs that look alike come from different tables or passages of the source.

Legend:
[1] = test system: MCF-7 human tumor xenograft TR; test: Inhibition of tumor thioredoxin reductase in MCF-7 xenografts; assay type: in vivo, mouse; details: 25 mg/kg/d i.v. five daily doses, 24 hr after last dose
Protocol: FIG. 3. Inhibition of cellular thioredoxin reductase by PX-916. MCF-7 human breast cancer cells grown in medium containing 1 μM Se for 7 days were treated with PX-916 and total cellular thioredoxin reductase activity measured. A. Time course of the inhibition of the thioredoxin reductase on exposure to 1 μM PX-916. […] In both cases values are the mean of 3 separate determinations and bars are S.E. P≦0.04 or **p≦0.01. C. Inhibition of MCF-7 tumor thioredoxin reductase by PX-916. MCF-7 human breast cancer xenografts were grown in female scid mice implanted with 17-β-estradiol 60 day slow-release pellets until they were ˜300 mm^3. The mice were administered a single dose of PX-916 of 25 mg/kg i.v. and tumors harvested at various times. Thioredoxin reductase activity was measured in tumor homogenates. Values are the mean of 3 mice at each time point and bars are SE. **p<0.01 compared to pretreatment value.
FIG. 5. Inhibition of tumor HIF-1α, VEGF and thioredoxin reductase by repeated administration of PX-916. Female scid mice were implanted 1d previously with a 90-d 17β-estradiol slow release pellet were inoculated s.c. with 10^7 MCF-7 human breast cancer cells. When the tumors were 300 mm^3, vehicle or 25 mg/kg/d PX-916 was given i.v. for five doses. […]

[2] = test system: MCF-7 human breast cancer xenografts; test: Antitumor activity, MCF-7 breast cancer xenograft; assay type: in vivo, mouse
Protocol: FIG. 4. Antitumor activity of PX-916. A. Female beige nude mice were inoculated subcutaneously (s.c.) with 10^7 A-673 rhabdomyosarcoma cells. When tumors were 100 mm^3 on day 8 (arrow) dosing was begun with (∘) vehicle alone; (▴) PX-916 10 mg/kg intraperitoneally (i.p.) daily for 4 doses. B. Female scid mice were inoculated s.c. with 10^7 SHP-77 human small cell lung cancer cells. When tumors were 130 mm^3 on day 17 (arrow) dosing was begun with (∘) vehicle alone; (▪) PX-916 10 mg/kg i.v. daily for 8 doses; (▴) PX-916 25 mg/kg i.v. daily for 5 doses. C. Female scid mice implanted 1 day previously with a 17-β-estradiol 60 day slow release pellet were inoculated s.c. with 10^7 MCF-7 human breast cancer cells. […] In both A and B values are the mean of 8 mice per group and bars are SE.
A single intravenous (i.v.) dose of PX-916 of 25 mg/kg inhibited MCF-7 human tumor xenograft TR up to about 60% at 24 hr and the inhibition was maintained for at least 48 hr (FIG. 3C). […] In this study 3 of eight nice had no histologically detectable tumor when the study was terminated on day 42.

[3] = Stability in ethanol at room temperature; assay type: physicochemical
Excerpt: PX-916 was stable as a stock solution in ethanol at room temperature with a half life of >5 days. […] Therefore, for in vitro studies PX-916 was used as a stock solution in ethanol, and for in vivo studies made fresh in pH 4.0 buffer vehicle.

[4] = target: T1, human cytochrome P-450 reductase (Homo sapiens, UniProt P16435); test: Inhibition of human cytochrome P-450 reductase (selectivity); assay type: biochemical
T1 sequence (P16435 1-677): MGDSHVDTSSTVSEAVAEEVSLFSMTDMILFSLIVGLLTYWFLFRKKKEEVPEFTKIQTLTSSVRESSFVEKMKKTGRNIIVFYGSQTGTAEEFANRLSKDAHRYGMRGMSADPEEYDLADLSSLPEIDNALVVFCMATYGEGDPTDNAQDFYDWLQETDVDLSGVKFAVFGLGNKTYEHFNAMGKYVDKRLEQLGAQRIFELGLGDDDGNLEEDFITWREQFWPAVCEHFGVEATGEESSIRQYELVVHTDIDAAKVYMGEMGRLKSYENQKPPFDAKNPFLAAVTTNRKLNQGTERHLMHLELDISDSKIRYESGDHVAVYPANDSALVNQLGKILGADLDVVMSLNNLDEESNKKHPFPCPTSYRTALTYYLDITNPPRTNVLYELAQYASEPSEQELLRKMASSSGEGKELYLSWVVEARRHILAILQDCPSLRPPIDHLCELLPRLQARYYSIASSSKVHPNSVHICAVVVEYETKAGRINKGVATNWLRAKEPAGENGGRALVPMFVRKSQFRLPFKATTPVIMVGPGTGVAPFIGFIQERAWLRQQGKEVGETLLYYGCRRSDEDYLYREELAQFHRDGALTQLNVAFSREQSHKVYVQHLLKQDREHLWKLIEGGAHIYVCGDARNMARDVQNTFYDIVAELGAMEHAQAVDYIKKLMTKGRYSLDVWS
Protocol: (§1) Based upon the observation that PX-916 was rapidly converted to PX-960 in aqueous solution, the ability of PX-960 to inhibit purified human TR was measured and found to be similar to that of PX-916 (Table 2). PX-916 was a selective inhibitor of human TR compared to two other NADPH dependent reductases with a selectivity of at least 200 for human glutathione reductase and human cytochrome P-450 reductase (Table 3).

[5] = target: T2, human cytochrome P-450 reductase (versus human thioredoxin reductase, TR) (Homo sapiens, UniProt P16435); test: as above; assay type: biochemical; details: human
T2 sequence (P16435 1-677): T1 sequence (P16435 1-677)
Protocol: as §1

[6] = test system: MCF-7 human breast cancer cells; test: MCF-7 breast cancer cell growth inhibition; assay type: cell-based; details: Homo sapiens, MCF7
Protocol: MCF-7 human breast cancer cells were grown in medium containing 1 μM selenium (Se) for 7 days which increased cellular thioredoxin reductase activity by about 5 fold as previously reported.

[7] = Toxicity in female scid mice; assay type: in vivo, mouse
[8] = 27.5 mg/kg i.v. every other day for 5 doses
[9] = 25 mg/kg i.v. x5, 24 hr after last dose
[10] = 25 mg/kg iv QD × 5, 24 hr after last dose, mean ± SE

## NCC(=O)Oc1ccc2c3c(cccc13)OC1(C=CC(=O)c3c(O)cccc31)O2 (centres unmarked) [PX-916, O-glycyl naphthoquinone spiroketal]
[1]
  decrease of tumor thioredoxin reductase activity: 75%
[2]; 27.5 mg/kg i.v. daily for 5 doses
  tumor growth inhibition: 52%
[2]; 27.5 mg/kg i.v. daily for 5 doses, 5 days after end of dosing
  tumor growth rate: 22±4 mm^3/day
[2]; [8]
  tumor growth inhibition: 52%
  tumor growth rate: 22±8 mm^3/day
[2]; 27.5 mg/kg orally for 5 doses
  tumor growth inhibition: 62%
  tumor growth rate: 18.5±8 mm^3/day
[2]; oral, at doses that gave i.v. antitumor activity
  antitumor activity following oral administration: Significant antitumor activity was not seen
[3]; b145
  half life of stock solution in ethanol: > 120 h
[3]; ethanol, b120, read-out: half-life for conversion to PX-960 in ethanol
  half-life: > 120 h
[4]
  concentration increase needed to inhibit cytochrome P-450 reductase: greater than 100 fold
[4]; Table 3, read-out: Inhibition IC50, cytochrome P-450 reductase (recombinant)
  IC50: 29.2 µM
[5]; Table 3, read-out: Selectivity for TR vs cytochrome P-450 reductase
  selectivity ratio: 104
[5]; read-out: selectivity for human TR vs human cytochrome P-450 reductase
  selectivity ratio: ≥ 200
[6]; Table 1, read-out: MCF-7 growth inhibition IC50
  IC50: 3.1 µM
[6]; Table 2, read-out: Inhibition of MCF-7 breast cancer cell growth IC50
  IC50: 3.1 µM
[6]; read-out: IC50 MCF-7 cell growth
  IC50: 3.1 µM
[7]; [9]
  major toxicities observed: neutropenia and thrombocytopenia
  plasma liver enzymes: no observable increase
  weight loss: no significant weight loss
[7]; [10]
  ALT: 39.8 ± 12.8 U/I
  AST: 166.9 ± 29.8 U/I
  Hb: 14.9 ± 0.4 g/dL
  LY: 0.3 ± 0.1 K/μl
  MO: 005 ± 0.01 K/μl
  NE: 0.9 ± 0.3 K/μl
  PLT: 436 ± 142 K/μl
  RBC: 8.9 ± 0.4 M/μl
  WB: 1.3 ± 0.6 K/μl
  Δbodywt: -0.6 ± 0.3 g
[7]; 5 daily doses of 25 mg/kg i.v., female scid mice
  tolerability: tolerated
[7]; single i.v. dose of 50 mg/kg, female scid mice
  lethality: lethal
